Series [1] concerns Mycobacteroides abscessus. The experiment in a line: Antimycobacterial activity against Mycobacterium abscessus RIVM incubated for 1 day by resazurin reduction microplate assay. Format: functional. The note with it: 24 h. For orientation: Resazurin is reduced to fluorescent resorufin, in cell work by metabolically active cells.
Series [2] concerns the target DNA topoisomerase 2-alpha (Homo sapiens) (UniProt P11388). The experiment in a line: Inhibition of human DNA topoisomerase II alpha assessed as residual activity at 100 uM using supercoiled pNO1 plasmid as substrate incubated for 30 mins by diamond dye staining based fluorescence microplate reader assay relative to control.
The test system of another series is Acinetobacter baumannii. The experiment in a line: Antibacterial activity against Acinetobacter baumannii ATCC17978 incubated for 18 hrs by serial broth microdilution method. Format: functional. On the technique in general: In broth dilution the organism is exposed to a series of concentrations in liquid medium.
For series [3], the target named is DNA topoisomerase 2-alpha (Homo sapiens) (UniProt P11388). The experiment in a line: Inhibition of human DNA topoisomerase II alpha assessed as residual activity at 10 uM using supercoiled pNO1 plasmid as substrate incubated for 30 mins by diamond dye staining based fluorescence microplate reader assay relative to control.
The test system of series [4] is Escherichia coli. The experiment in a line: Antibacterial activity against Escherichia coli ATCC 25922 incubated for 18 hrs by serial broth microdilution method. The format is functional.
For the next series, the system named is Klebsiella pneumoniae. The experiment in a line: Antibacterial activity against Klebsiella pneumoniae ATCC10031 incubated for 18 hrs by serial broth microdilution method. Format: functional.
Series [5] deals with Mycobacterium tuberculosis. The experiment in a line: Antimycobacterial activity against Mycobacterium tuberculosis H37Rv ATCC 25618 assessed as reduction in viability incubated for 6 days by resazurin reduction microplate assay. Particulars: H37Rv ATCC 25618, 144 h, time 6 day. The format is functional.
The next series relates to Pseudomonas aeruginosa. The experiment in a line: Antibacterial activity against Pseudomonas aeruginosa ATCC 27853 incubated for 18 hrs by serial broth microdilution method. Format: functional.
Series [6] concerns Mycolicibacterium smegmatis. The experiment in a line: Antimycobacterial activity against Mycobacterium smegmatis MC2 incubated for 2 days by resazurin reduction microplate assay. Format: functional. Particulars: MC2, 48 h, time 2 day.
The test system of series [7] is Escherichia coli. The experiment in a line: Antibacterial activity against Escherichia coli ATCC 25922 harboring deltaTolC mutant incubated for 18 hrs by serial broth microdilution method. The format is functional.
The subject of another series is Staphylococcus aureus. The experiment in a line: Antibacterial activity against Staphylococcus aureus ATCC 29213 incubated for 18 hrs by serial broth microdilution method. The format is functional.
Series [8] deals with Mycobacterium tuberculosis. The experiment in a line: Antimycobacterial activity against GFP-expressing Mycobacterium tuberculosis H37Rv infected in PMA-treated THP-1 cells assessed as bacterial viability at 10 uM pre-infected for 3 hrs prior to gentamycin addition for 1 hr followed by washout and compound addition measured after 4 days by fluorescence microscopic analysis (reference value: 100%). Format: functional. The note with it: time 4 day.

Series [9] relates to Bacteroides thetaiotaomicron. The experiment in a line: Antibacterial activity against Bacteroides thetaiotaomicron DSM 2079 measured at 15 mins interval for 24 hrs by broth microdilution method. The format is functional.
The target of series [10] is T1, hERG (KCNH2) (Homo sapiens, UniProt Q12809). The experiment in a line: Inhibition of human ERG expressed in HEK293 cells at 50 uM by whole-cell patch clamp method relative to control. Format: toxicity, cell-based. The note with it: HEK293 cells that express hERG.
Series [11] in a line: Inhibition of Mycobacterium smegmatis DNA gyrase using […] DNA as substrate incubated for 30 mins by gel based method. Also noted: species or system Mycolicibacterium smegmatis.
The nature of series [12]: Acute toxicity in zebrafish embryo assessed as change in behavior upto 5 mM measured for 4 days. Also noted: species or system Danio rerio. Particulars: in vivo, 96 h, 5000 µM, time 4 day.
The target of the next series is DNA gyrase (Escherichia coli, UniProt P0AES4+P0AES6). The experiment in a line: Inhibition of Escherichia coli DNA gyrase using relaxed pNO1 as substrate measured after 30 mins by SybrGOLD staining based fluorescence microplate reader analysis. Format: protein-complex assay.
Series [13] relates to THP-1. The experiment in a line: Cytotoxicity against human THP-1 cells assessed as reduction in viability at 40 uM pretreated with PMA for 48 hrs followed by washout and compound addition for 5 days by resazurin sodium salt method. The format is toxicity, cell-based. Particulars: thp-1, 120 h, time 5 day.
Series [14] deals with Mycobacterium tuberculosis. The experiment in a line: Antimycobacterial activity against GFP-expressing Mycobacterium tuberculosis H37Rv infected in PMA-treated THP-1 cells assessed as bacterial viability pre-infected for 3 hrs prior to gentamycin addition for 1 hr followed by washout and compound addition measured after 4 days by fluorescence microscopic analysis. Format: functional, organism-based. Particulars: dose 1-30 µM, time 4.0 day.

Series [15] in a line: Kinetic solubility of compound in PBS at 100 uM incubated for 20 hrs in shaker by LC-MS/MS analysis. Format: physicochemical. Particulars: read-out: Kinetic_solubility.
Series [16] in a line: Acute toxicity in zebrafish embryo assessed as effect on embryo survival upto 5 mM measured for 4 days. Also noted: species or system Danio rerio. Particulars: in vivo, 96 h, 5000 µM, time 4 day.
The target of series [17] is T1, hERG (KCNH2). The experiment in a line: Inhibition of human ERG expressed in HEK293 cells at 10 uM by whole-cell patch clamp method relative to control. Format: toxicity, cell-based. Particulars: HEK293 cells that express hERG. For orientation: In patch-clamp work, channel activity is measured electrically.
A further series has as its system Anaerostipes hadrus. The experiment in a line: Antibacterial activity against Anaerostipes hadrus DSM 3319 measured at 15 mins interval for 24 hrs by broth microdilution method. Format: functional.
Series [18] can be described thus: Acute toxicity in zebrafish embryo assessed as effect on embryo development upto 5 mM measured for 4 days. The arrangement: species or system Danio rerio. The note with it: in vivo, 96 h, 5000 µM, time 4 day.
Series [19] has as its system Mycobacterium tuberculosis. The experiment in a line: Antimycobacterial activity against GFP-expressing Mycobacterium tuberculosis H37Rv infected in PMA-treated THP-1 cells assessed as increase in number of surviving macrophages at 10 to 30 uM pre-infected for 3 hrs prior to gentamycin addition for 1 hr followed by washout and compound addition measured after 4 days by fluorescence microscopic analysis. The note with it: dose 10-30 µM, time 4.0 day. The format is functional, organism-based.

In series [20] the test system is THP-1. The experiment in a line: Cytotoxicity against replicating human THP-1 cells upto 40 uM. The format is toxicity, cell-based. The note with it: thp-1, 40 µM.
For a further series, the system named is Segatella copri. The experiment in a line: Antibacterial activity against Prevotella copri DSM 18205 measured at 15 mins interval for 24 hrs by broth microdilution method. The format is functional.
Series [21] is described as follows: Inhibition of Escherichia coli DNA topoisomerase IV […] using supercoiled pNO1 as substrate measured after 30 mins by SybrGOLD staining based fluorescence microplate reader analysis.
Another series deals with MCF7. The experiment in a line: Cytotoxicity against human MCF7 cells assessed as residual activity at 50 uM incubated for 72 hrs by MTS assay. The format is functional.
Series [22] has as its target DNA gyrase subunit A/DNA gyrase subunit B (Mycobacterium tuberculosis (strain ATCC 25618 / H37Rv), UniProt P9WG45+P9WG47). The experiment in a line: Inhibition of Mycobacterium tuberculosis DNA gyrase using […] DNA as substrate incubated for 30 mins by gel based method. The format is protein-complex assay.
The subject of the next series is Enterobacter cloacae. The experiment in a line: Antibacterial activity against Enterobacter cloacae ATCC13047 incubated for 18 hrs by serial broth microdilution method. The format is functional.
The nature of series [23]: Inhibition of Mycobacterium tuberculosis DNA gyrase B.
The test system of series [24] is Mycobacterium tuberculosis. The experiment in a line: Antimycobacterial activity against Mycobacterium tuberculosis H37Rv ATCC 25618 assessed as reduction in viability at 5 uM incubated for 6 days by resazurin reduction microplate assay. The format is functional. Particulars: time 6.0 day.

pIC50: −log10 of the molar value. Values after ≈ are worked out from the molar mass of the structure shown. Active and inactive are the calls of the source. The rule behind the calls is not given here.

What is called MIC90 is the lowest concentration that inhibits either 90% of growth or 90% of the strains tested, depending on the study. The term MIC denotes the lowest concentration that inhibits growth of the organism. Read a low MIC as a more susceptible organism. Broadly, the inhibition is the relative decrease from the control value, in per cent. For orientation: pIC50 means the negative decadic logarithm of the IC50, by convention in mol/L. Lower therefore signals a large IC50.

DNA topoisomerase 2-alpha (Homo sapiens), sequence (P11388 whole entry): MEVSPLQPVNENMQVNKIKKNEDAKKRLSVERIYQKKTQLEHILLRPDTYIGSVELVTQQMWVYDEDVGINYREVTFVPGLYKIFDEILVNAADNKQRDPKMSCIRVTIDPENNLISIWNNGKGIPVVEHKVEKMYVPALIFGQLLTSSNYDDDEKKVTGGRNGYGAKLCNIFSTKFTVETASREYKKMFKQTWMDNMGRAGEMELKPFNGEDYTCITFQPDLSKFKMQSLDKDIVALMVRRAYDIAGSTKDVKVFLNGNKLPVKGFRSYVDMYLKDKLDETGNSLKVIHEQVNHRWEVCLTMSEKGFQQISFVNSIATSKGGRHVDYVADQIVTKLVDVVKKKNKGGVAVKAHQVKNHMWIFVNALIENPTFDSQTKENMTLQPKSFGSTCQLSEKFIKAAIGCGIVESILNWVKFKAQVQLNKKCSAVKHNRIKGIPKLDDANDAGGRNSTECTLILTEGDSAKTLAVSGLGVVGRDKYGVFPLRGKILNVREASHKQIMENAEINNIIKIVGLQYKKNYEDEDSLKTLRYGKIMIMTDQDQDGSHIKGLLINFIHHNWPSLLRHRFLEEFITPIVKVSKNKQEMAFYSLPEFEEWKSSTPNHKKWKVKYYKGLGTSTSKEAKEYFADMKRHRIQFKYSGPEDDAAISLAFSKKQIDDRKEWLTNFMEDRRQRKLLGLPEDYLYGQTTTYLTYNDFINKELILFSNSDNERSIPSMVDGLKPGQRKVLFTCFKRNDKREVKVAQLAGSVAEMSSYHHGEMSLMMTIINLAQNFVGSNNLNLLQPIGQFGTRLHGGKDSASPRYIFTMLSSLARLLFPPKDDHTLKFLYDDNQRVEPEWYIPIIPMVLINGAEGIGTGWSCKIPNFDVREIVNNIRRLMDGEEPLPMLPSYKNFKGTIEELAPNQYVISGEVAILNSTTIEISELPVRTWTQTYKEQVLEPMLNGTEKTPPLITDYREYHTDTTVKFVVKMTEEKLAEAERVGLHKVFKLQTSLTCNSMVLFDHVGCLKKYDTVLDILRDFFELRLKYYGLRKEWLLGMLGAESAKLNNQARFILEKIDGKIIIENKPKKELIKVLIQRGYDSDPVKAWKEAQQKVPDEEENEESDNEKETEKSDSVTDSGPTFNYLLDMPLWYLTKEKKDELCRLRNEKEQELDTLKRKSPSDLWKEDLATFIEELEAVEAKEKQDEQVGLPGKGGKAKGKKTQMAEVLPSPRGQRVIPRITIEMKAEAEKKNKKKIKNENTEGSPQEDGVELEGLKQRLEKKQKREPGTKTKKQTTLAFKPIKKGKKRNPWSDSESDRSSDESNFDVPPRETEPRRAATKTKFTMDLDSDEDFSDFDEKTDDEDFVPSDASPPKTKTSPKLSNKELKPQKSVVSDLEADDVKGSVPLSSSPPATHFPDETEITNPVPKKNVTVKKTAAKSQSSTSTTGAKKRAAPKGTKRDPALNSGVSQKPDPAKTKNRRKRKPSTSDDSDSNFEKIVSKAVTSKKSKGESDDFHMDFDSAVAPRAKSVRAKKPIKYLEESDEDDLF
T1 sequence (Q12809 whole entry): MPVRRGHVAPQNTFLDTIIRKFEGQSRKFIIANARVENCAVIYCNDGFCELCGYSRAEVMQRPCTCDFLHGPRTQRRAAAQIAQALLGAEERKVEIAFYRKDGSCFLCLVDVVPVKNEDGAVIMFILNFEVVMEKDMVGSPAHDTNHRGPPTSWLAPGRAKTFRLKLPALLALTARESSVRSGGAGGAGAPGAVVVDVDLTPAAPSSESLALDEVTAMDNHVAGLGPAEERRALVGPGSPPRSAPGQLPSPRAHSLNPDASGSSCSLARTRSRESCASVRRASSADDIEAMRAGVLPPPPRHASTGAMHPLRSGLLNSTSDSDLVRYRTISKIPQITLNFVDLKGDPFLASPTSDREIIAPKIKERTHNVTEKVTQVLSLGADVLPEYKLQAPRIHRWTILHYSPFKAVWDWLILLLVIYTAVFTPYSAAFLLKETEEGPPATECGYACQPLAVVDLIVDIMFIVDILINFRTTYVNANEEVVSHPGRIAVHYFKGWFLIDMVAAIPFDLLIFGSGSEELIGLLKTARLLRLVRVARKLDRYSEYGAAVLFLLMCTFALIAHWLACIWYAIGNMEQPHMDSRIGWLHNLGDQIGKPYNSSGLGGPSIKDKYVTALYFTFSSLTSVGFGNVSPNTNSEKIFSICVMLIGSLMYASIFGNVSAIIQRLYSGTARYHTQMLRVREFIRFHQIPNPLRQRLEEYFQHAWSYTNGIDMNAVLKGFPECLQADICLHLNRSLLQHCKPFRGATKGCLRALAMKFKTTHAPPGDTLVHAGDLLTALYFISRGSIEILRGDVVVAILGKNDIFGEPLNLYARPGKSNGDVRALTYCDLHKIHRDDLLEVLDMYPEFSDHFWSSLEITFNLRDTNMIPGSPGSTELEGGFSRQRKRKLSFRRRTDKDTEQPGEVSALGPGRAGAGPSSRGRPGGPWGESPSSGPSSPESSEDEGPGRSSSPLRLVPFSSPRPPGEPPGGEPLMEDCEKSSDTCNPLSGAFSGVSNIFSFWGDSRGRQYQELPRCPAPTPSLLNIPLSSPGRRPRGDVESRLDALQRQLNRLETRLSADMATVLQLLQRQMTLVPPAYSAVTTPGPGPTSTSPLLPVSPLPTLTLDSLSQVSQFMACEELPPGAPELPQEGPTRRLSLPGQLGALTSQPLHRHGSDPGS
DNA gyrase subunit A/DNA gyrase subunit B, sequence (P9WG45 whole entry): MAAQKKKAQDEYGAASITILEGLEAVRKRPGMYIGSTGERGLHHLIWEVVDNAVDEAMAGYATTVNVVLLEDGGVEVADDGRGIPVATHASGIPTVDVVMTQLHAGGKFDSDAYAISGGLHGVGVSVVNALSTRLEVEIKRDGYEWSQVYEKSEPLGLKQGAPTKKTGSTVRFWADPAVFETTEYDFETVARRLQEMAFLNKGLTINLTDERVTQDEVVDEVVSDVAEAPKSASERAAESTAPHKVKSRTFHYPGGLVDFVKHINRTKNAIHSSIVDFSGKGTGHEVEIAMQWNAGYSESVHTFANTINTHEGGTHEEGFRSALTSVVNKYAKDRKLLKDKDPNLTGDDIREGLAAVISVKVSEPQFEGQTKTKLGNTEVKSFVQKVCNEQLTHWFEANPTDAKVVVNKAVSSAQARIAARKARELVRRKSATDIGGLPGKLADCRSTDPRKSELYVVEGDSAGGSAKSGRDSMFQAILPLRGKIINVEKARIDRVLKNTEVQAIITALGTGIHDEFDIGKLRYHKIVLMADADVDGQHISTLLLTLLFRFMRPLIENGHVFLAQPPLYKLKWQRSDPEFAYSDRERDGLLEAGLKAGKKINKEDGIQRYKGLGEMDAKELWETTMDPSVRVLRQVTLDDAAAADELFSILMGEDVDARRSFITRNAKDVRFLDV
DNA gyrase subunit A/DNA gyrase subunit B, sequence (P9WG47 whole entry): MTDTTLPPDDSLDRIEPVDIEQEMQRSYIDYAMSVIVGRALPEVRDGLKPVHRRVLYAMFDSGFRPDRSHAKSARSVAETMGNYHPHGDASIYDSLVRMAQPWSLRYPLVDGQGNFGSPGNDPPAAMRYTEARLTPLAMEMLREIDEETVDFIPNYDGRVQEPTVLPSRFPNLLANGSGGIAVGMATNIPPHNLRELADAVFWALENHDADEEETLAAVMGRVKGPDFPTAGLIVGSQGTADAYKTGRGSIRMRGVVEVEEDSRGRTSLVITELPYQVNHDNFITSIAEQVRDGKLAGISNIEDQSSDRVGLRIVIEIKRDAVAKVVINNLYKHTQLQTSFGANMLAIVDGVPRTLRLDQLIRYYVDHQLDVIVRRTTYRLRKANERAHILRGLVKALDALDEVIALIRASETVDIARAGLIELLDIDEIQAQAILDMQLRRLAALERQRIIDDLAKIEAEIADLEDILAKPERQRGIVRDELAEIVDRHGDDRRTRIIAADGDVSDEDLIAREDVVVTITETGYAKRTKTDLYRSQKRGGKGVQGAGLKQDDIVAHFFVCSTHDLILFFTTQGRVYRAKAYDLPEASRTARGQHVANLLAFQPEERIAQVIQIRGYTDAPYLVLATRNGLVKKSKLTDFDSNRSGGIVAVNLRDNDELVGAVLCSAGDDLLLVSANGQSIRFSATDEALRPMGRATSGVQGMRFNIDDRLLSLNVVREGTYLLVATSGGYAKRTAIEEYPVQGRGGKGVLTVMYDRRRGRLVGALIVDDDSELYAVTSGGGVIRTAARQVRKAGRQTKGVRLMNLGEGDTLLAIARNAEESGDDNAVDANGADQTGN

Consider `Cc1[nH]c(C(=O)Nc2nc3c(OC4CCNC4)cc(C(=O)O)cc3s2)c(Cl)c1Cl` (configuration not stated), for which the MIC90 in series [1] is 10 µM (≈ 4.55 µg/mL); in the series with Acinetobacter baumannii, more than 130 µM; with Escherichia coli [4], 130 µM (≈ 59.2 µg/mL); in the series with Klebsiella pneumoniae, more than 130 µM; in series [5] it was 2.5 µM (≈ 1.14 µg/mL); against Pseudomonas aeruginosa, more than 130 µM. Further, the MIC90 was more than 20 µM in series [6], 130 µM (≈ 59.2 µg/mL) in the series with Escherichia coli [7] and more than 130 µM with Staphylococcus aureus. In addition, the Activity in series [2] and in series [3] was 102% each time.
For the compound `C[C@H]1COc2c(N3CCN(C)CC3)c(F)cc3c(=O)c(C(=O)O)cn1c23` [LEVOFLOXACIN ANHYDROUS], in series [8], the Activity was 2.3%.
Regarding `Cc1[nH]c(C(=O)Nc2nc3c(OCC(C)N(C)C)cc(C(=O)O)cc3s2)c(Cl)c1Cl` (configuration not stated), the MIC90 came out at 0.63 µM (≈ 0.297 µg/mL) in [1], 40 µM (≈ 18.9 µg/mL) in series [5] and 10 µM (≈ 4.71 µg/mL) in series [6].
For the compound `Cc1[nH]c(C(=O)Nc2nc3c(OC(C)C4CCNCC4)cc(C(=O)O)cc3s2)c(Cl)c1Cl` (configuration not stated), the MIC90 in series [1] is 2.5 µM (≈ 1.24 µg/mL); with Acinetobacter baumannii, more than 120 µM; against Escherichia coli [4], more than 120 µM; with Klebsiella pneumoniae it was more than 120 µM; in series [5], 0.63 µM (≈ 0.313 µg/mL); with Pseudomonas aeruginosa, more than 120 µM. The MIC90 in series [6] is 2.5 µM (≈ 1.24 µg/mL); against Escherichia coli [7], 2 µM (≈ 0.995 µg/mL); in the series with Staphylococcus aureus it was more than 120 µM. Further, the MIC (in [9]; in the series on Anaerostipes hadrus; against Segatella copri) was more than 20 µM each time. This compound also showed an inhibition at 50 µM at hERG (KCNH2) [10] of 29%. Further, the Activity is 96% in series [2]; 96% in series [3]; “Non-Toxic” in series [12]; “Non-Toxic” in the series on THP-1 [13]; “Dose-Dependent Effect” in series [14]; “Non-Toxic” in series [16]. Moreover, the Activity entry is “Non-Toxic” in series [18], “Non-Toxic” in the series on THP-1 [20] and 81% in the series on MCF7. In addition, the pIC50 in series [11] was 8.24; against DNA gyrase, more than 8.00; in [21], 7.00; in series [22], 8.39. For the same compound, the solubility kinetic at 20 h, 100 µM in series [15] came out at 1 µM (≈ 0.497 µg/mL). Also, the inhibition at 10 µM against hERG (KCNH2) [17] stood at 4.2%. For the same compound, the result in series [19] was Active.
For `Cc1[nH]c(C(=O)Nc2nc3c(OC(CN4CCN(C)CC4)C4CC4)cc(C(=O)O)cc3s2)c(Cl)c1Cl` (configuration not stated), the MIC90 is 0.63 µM (≈ 0.348 µg/mL) in series [1]; more than 116 µM in the series on Acinetobacter baumannii; more than 116 µM in the series on Escherichia coli [4]; 7 µM (≈ 3.87 µg/mL) in the series on Klebsiella pneumoniae; 5 µM (≈ 2.76 µg/mL) in [5]; more than 116 µM in the series with Pseudomonas aeruginosa. Besides, the MIC90 in series [6] is 0.63 µM (≈ 0.348 µg/mL); with Enterobacter cloacae it was more than 116 µM; in the series on Staphylococcus aureus, 14 µM (≈ 7.73 µg/mL). The Activity in series [2] and in series [3] was 99% each time.
For `Cc1[nH]c(C(=O)Nc2nc3c(OCc4ccccc4)cc(C(=O)O)cc3s2)c(Cl)c1Cl`, the pIC50 in series [23] was 8.29. In series [24], the outcome was inactive.
For `Cc1[nH]c(C(=O)Nc2nc3c(OC(CN4CCC(N)CC4)c4ccccc4)cc(C(=O)O)cc3s2)c(Cl)c1Cl` (configuration not stated), the MIC90 in series [1] was found to be 0.63 µM (≈ 0.371 µg/mL); in series [5], 1.25 µM (≈ 0.736 µg/mL); in [6], 0.63 µM (≈ 0.371 µg/mL). Also, the outcome with Escherichia coli [4] was Active.
`Cc1[nH]c(C(=O)Nc2nc3c(OC(CN)c4ccccc4)cc(C(=O)O)cc3s2)c(Cl)c1Cl` (configuration not stated): the MIC90 in series [1] amounted to 0.63 µM (≈ 0.318 µg/mL); in [5] it was 1.25 µM (≈ 0.632 µg/mL); in series [6], 1.25 µM (≈ 0.632 µg/mL).
As to `Cc1[nH]c(C(=O)Nc2nc3c(OC(CN(C)C)c4ccccc4)cc(C(=O)O)cc3s2)c(Cl)c1Cl` (configuration not stated), the values for the MIC90 in series [1], in [5] and in series [6] were 0.63 µM (≈ 0.336 µg/mL), 1.25 µM (≈ 0.667 µg/mL) and 0.16 µM (≈ 0.0853 µg/mL), respectively.

For the origin of these results see ChEMBL document CHEMBL5608207, “Development of narrow-spectrum topoisomerase-targeting antibacterials against mycobacteria” (Eur J Med Chem, 2024).
